# Data taken from ChEMBL document CHEMBL4118281, “Azoalkyl ether imidazo[2,1-b]benzothiazoles as potentially antimicrobial agents with novel structural skeleton” (2018).
# How the values were obtained:
# Saccharomyces cerevisiae = assay: Antifungal activity against Beer yeast after 24 hrs by two fold serial dilution based spectrophotometric analysis; assay type: functional
# Staphylococcus aureus [1] = assay: Antibacterial activity against methicillin-resistant Staphylococcus aureus N315 after 24 hrs by micro broth dilution method; assay type: functional; conditions: N315, 24 h
# Escherichia coli [2] = assay: Antibacterial activity against Escherichia coli DH52 after 24 hrs by micro broth dilution method; assay type: functional; conditions: DH52, 24 h
# Micrococcus luteus = assay: Antibacterial activity against Micrococcus luteus ATCC 4698 after 24 hrs by micro broth dilution method; assay type: functional; conditions: NCTC 2665, 24 h
# Bacillus = assay: Antibacterial activity against Bacillus proteus ATCC 13315 after 24 hrs by micro broth dilution method; assay type: functional; conditions: ATCC 13315, 24 h
# Escherichia coli [3] = assay: Antibacterial activity against Escherichia coli JM109 after 24 hrs by micro broth dilution method; assay type: functional; conditions: JM109, 24 h
# Pichia norvegensis = assay: Antifungal activity against Candida mycoderma after 24 hrs by two fold serial dilution based spectrophotometric analysis; assay type: functional
# Bacillus subtilis = assay: Antibacterial activity against Bacillus subtilis after 24 hrs by micro broth dilution method; assay type: functional
# Salmonella typhi = assay: Antibacterial activity against Bacillus typhi after 24 hrs by micro broth dilution method; assay type: functional, Salmonella enterica subsp. enterica serovar Typhi; conditions: Salmonella enterica
# Staphylococcus aureus [4] = assay: Antibacterial activity against Staphylococcus aureus ATCC 25923 after 24 hrs by micro broth dilution method; assay type: functional; conditions: ATCC 25923, 24 h
# Cyberlindnera jadinii = assay: Antifungal activity against Candida utilis after 24 hrs by two fold serial dilution based spectrophotometric analysis; assay type: functional; conditions: Williopsis jadinii
# Shigella dysenteriae = assay: Antibacterial activity against Shigella dysenteriae after 24 hrs by micro broth dilution method; assay type: functional
# Aspergillus flavus = assay: Antifungal activity against Aspergillus flavus after 24 hrs by two fold serial dilution based spectrophotometric analysis; assay type: functional
# Candida albicans = assay: Antifungal activity against Candida albicans after 24 hrs by two fold serial dilution based spectrophotometric analysis; assay type: functional
# Pseudomonas aeruginosa = assay: Antibacterial activity against Pseudomonas aeruginosa after 24 hrs by micro broth dilution method; assay type: functional
SMILES,MIC (Saccharomyces cerevisiae) [µg/mL],MIC (Staphylococcus aureus [1]) [µg/mL],MIC (Escherichia coli [2]) [µg/mL],MIC (Micrococcus luteus) [µg/mL],MIC (Bacillus) [µg/mL],MIC (Escherichia coli [3]) [µg/mL],MIC (Pichia norvegensis) [µg/mL],MIC (Bacillus subtilis) [µg/mL],MIC (Salmonella typhi) [µg/mL],MIC (Staphylococcus aureus [4]) [µg/mL],MIC (Cyberlindnera jadinii) [µg/mL],MIC (Shigella dysenteriae) [µg/mL],MIC (Aspergillus flavus) [µg/mL],MIC (Candida albicans) [µg/mL],MIC (Pseudomonas aeruginosa) [µg/mL]
CCOc1ccc2c(c1)sc1nc(-c3ccccc3)c(COCCCCCBr)n12,> 512,> 512,128,> 512,128,> 512,128,128,> 512,> 512,> 512,128,64,16,> 512
CCn1cc(C(=O)O)c(=O)c2cc(F)c(N3CCNCC3)cc21 [NORFLOXACIN],–,8,1,2,8,1,–,4,4,2,–,16,–,–,16
BrCCCCCCCCCCOCc1c(-c2ccccc2)nc2sc3ccccc3n12,64,64,16,32,16,128,64,8,128,32,64,64,16,4,16
CCOc1ccc2c(c1)sc1nc(-c3ccccc3)c(COCCCBr)n12,> 512,> 512,> 512,> 512,> 512,> 512,> 512,> 512,8,> 512,> 512,> 512,512,> 512,16
O=[N+]([O-])c1cn(CCCCCCCCCCOCc2c(-c3ccccc3)nc3sc4ccccc4n23)cn1,8,16,16,128,32,64,64,64,64,32,256,16,128,64,64
CCOc1ccc2c(c1)sc1nc(-c3ccccc3)c(COCCCCCCCCCCn3cnc([N+](=O)[O-])c3)n12,256,32,64,512,256,512,128,32,32,128,512,8,64,256,32
CCOc1ccc2c(c1)sc1nc(-c3ccccc3)c(COCCCn3cncn3)n12,128,> 512,> 512,> 512,> 512,256,64,> 512,> 512,> 512,64,> 512,64,16,> 512
OC(Cn1cncn1)(Cn1cncn1)c1ccc(F)cc1F [FLUCONAZOLE],16,–,–,–,–,–,4,–,–,–,8,–,256,1,–
CCOc1ccc2c(c1)sc1nc(-c3ccccc3)c(COCCCn3c([N+](=O)[O-])cnc3C)n12,8,16,16,128,32,32,64,16,8,32,256,8,64,32,32
CCOc1ccc2c(c1)sc1nc(-c3ccccc3)c(COCCCCCn3c([N+](=O)[O-])cnc3C)n12,128,–,512,256,> 512,> 512,128,512,–,128,256,–,128,32,512
CCOc1ccc2c(c1)sc1nc(-c3ccccc3)c(COCCCCCCCCCCBr)n12,> 512,> 512,> 512,> 512,> 512,> 512,> 512,> 512,256,> 512,> 512,> 512,512,> 512,16
